Measurements as given in patent US4916065A (priority 1988, dated 1990).
In brackets after ≈: the same amount, converted by molar mass. Like-named read-outs stand apart in the source and are kept apart here.

How the values were obtained:
[1] = test system: Micrococcus luteus 1001; test: Antibacterial MIC, serial agar dilution; type: cell-based; details: aerobic, nutrient agar
[2] = test system: Escherichia coli A20665; test: Antibacterial MIC, serial agar dilution; type: cell-based; details: aerobic, nutrient agar, kanamycin-resistant
[3] = test system: aerobic and anaerobic bacteria; type: cell-based
[4] = test system: Cryptococcus neoformans D49; test: Antifungal MIC, Sabouraud dextrose agar; type: cell-based
[5] = test system: P388 leukemia; test: Antitumor activity against P388 leukemia (ip); type: in vivo, mice; details: for Body weight change on day 4 / MST (median survival time) / T/C: QD × 3, ip
[6] = test system: P388; test: In vitro cytotoxicity; type: cell-based, murine; details: Mus musculus, 72 hours, viable cell count
Procedure: (§1) On the other hand, the cytotoxic activities against P388 and P388/VCR cells were determined by counting the number of viable cells.

[7] = test system: Escherichia coli Juhl; test: Antibacterial MIC, serial agar dilution; type: cell-based; details: aerobic, nutrient agar
[8] = test system: DNA synthesis in L1210 cells; test: Inhibition of macromolecule synthesis in L1210 leukemia; type: cell-based; details: Mus musculus; 3H-thymidine, L1210, 15 min + 60 min, 37° C.
[9] = test system: Trichophyton mentagrophytes D155; test: Antifungal MIC, Sabouraud dextrose agar; type: cell-based
[10] = test system: HCT-116; test: In vitro cytotoxicity; type: cell-based; details: Homo sapiens, 72 hours, neutral red, 540 nm
[11] = test system: Escherichia coli A9624; test: Antibacterial MIC, serial agar dilution; type: cell-based; details: aerobic, nutrient agar, kanamycin-resistant
[12] = test system: Protein synthesis in L1210 cells; test: Inhibition of macromolecule synthesis in L1210 leukemia; type: cell-based; details: Mus musculus; 3H-leucine, L1210, 15 min + 60 min, 37° C.
[13] = test system: Staphylococcus aureus Smith; type: in vivo, mice; details: single, im; for No. of survivor/tested: 5 days
Procedure: Mice were challenged intraperitoneally with 100 times the lethal dose of the pathogen in a 5% suspension of hog gastric mucin (American laboratory, Omaha, Nebr.). BU-3420T was administered to mice intramuscularly just before the bacterial challenge.

[14] = test system: Staphylococcus epidermidis A22152; test: Antibacterial MIC, serial agar dilution; type: cell-based; details: aerobic, nutrient agar, kanamycin-resistant
[15] = test system: Moser; test: In vitro cytotoxicity; type: cell-based; details: Homo sapiens; 72 hours, neutral red, 540 nm
[16] = test system: Propionibacterium acnes A21933; test: Antibacterial MIC, serial agar dilution; type: cell-based; details: Cutibacterium acnes, anaerobic, GAM agar
[17] = test system: Escherichia coli NIHJ; test: Antibacterial MIC, serial agar dilution; type: cell-based; details: aerobic, nutrient agar
[18] = test system: Trichophyton mentagrophytes #4329; test: Antifungal MIC, Sabouraud dextrose agar; type: cell-based
[19] = test system: B16-F10; test: In vitro cytotoxicity; type: cell-based, murine; details: Mus musculus, 72 hours, neutral red, 540 nm
[20] = test system: Canidia albicans IAM4888; test: Antifungal MIC, Sabouraud dextrose agar; type: cell-based
[21] = test system: RNA synthesis in L1210 cells; test: Inhibition of macromolecule synthesis in L1210 leukemia; type: cell-based; details: Mus musculus; 14C-uridine, L1210, 15 min + 60 min, 37° C.
[22] = test system: Cryptococcus neoformans IAM4514; test: Antifungal MIC, Sabouraud dextrose agar; type: cell-based
[23] = Solubility; type: physicochemical
[24] = test system: Enterococcus faecalis A9612; test: Antibacterial MIC, serial agar dilution; type: cell-based; details: aerobic, nutrient agar
[25] = test system: P388/VCR; test: In vitro cytotoxicity
Procedure: as §1

[26] = test system: Proteus mirabilis A9554; test: Antibacterial MIC, serial agar dilution; type: cell-based; details: aerobic, nutrient agar
[27] = test system: Enterobacter cloacae A9659; test: Antibacterial MIC, serial agar dilution; type: cell-based; details: aerobic, nutrient agar
[28] = test system: Staphylococcus aureus 209P; test: Antibacterial MIC, serial agar dilution; type: cell-based; details: aerobic, nutrient agar
[29] = test system: Mucor spinosus IF05317; test: Antifungal MIC, Sabouraud dextrose agar; type: cell-based

COC1=C(C(=O)O)C(C)C23OC24c2cc(O)c5c(c2NC3C#C/C=C\C#CC14)C(=O)c1c(O)ccc(O)c1C5=O (stereo not shown) [BU-3420T]
MIC [1]: 0.8 ng/mL (≈ 1.49 nM) | MIC [2]: 50 ng/mL (≈ 93 nM) | activity against Gram-negative organisms ([3]; Gram-negative organisms, versus Gram-positive): a little less susceptible | activity against Gram-positive aerobic bacteria ([3]; Gram-positive aerobic bacteria): intensely potent activity | activity against anaerobic Gram-positive and negative bacteria versus clindamycin ([3]; anaerobic bacteria): much more active than clindamycin | activity against certain kanamycin- and clindamycin-resistant bacteria ([3]; kanamycin- and clindamycin-resistant bacteria): susceptible to both compounds | MIC [4]: 12500 ng/mL (≈ 23300 nM) | Body weight change on day 4 ([5]; 0.5 mg/kg/day): 0.0 g | MST (median survival time) ([5]; 0.5 mg/kg/day): 13.0 days | T/C ([5]; 0.5 mg/kg/day): 130% | Body weight change on day 4 ([5]; 1.0 mg/kg/day): -0.5 g | MST (median survival time) ([5]; 1.0 mg/kg/day): 13.5 days | T/C ([5]; 1.0 mg/kg/day): 135% | maximum T/C value ([5]; P388, ip, QD × 3): 135% | IC50 [6]: 0.4 ng/mL (≈ 0.744 nM) | MIC [7]: 50 ng/mL (≈ 93 nM) | IC50 [8]: 18 ng/mL | MIC [9]: 12500 ng/mL (≈ 23300 nM) | IC50 [10]: 0.42 ng/mL (≈ 0.781 nM) | MIC [11]: 50 ng/mL (≈ 93 nM) | IC50 [12]: 1500 ng/mL | No. of survivor/tested ([13]; 0.01 mg/kg): 0/5 | No. of survivor/tested ([13]; 0.04 mg/kg): 0/5 | ED50 ([13]; Staphylococcus aureus, 120 h, just before challenge, 5 days observation, read-out: PD50 (median protective dose)): 0.13 mg/kg | MIC [14]: 0.05 ng/mL (≈ 0.093 nM) | IC50 [15]: 0.85 ng/mL (≈ 1.58 nM) | MIC [16]: 13 ng/mL (≈ 24.2 nM) | MIC [17]: 50 ng/mL (≈ 93 nM) | MIC [18]: 12500 ng/mL (≈ 23300 nM) | IC50 [19]: 5.2 ng/mL (≈ 9.67 nM) | MIC [20]: 12500 ng/mL (≈ 23300 nM) | IC50 [21]: 9200 ng/mL | MIC [22]: 12500 ng/mL (≈ 23300 nM) | solubility ([23]; chloroform, ethyl acetate, methanol and ethanol): slightly soluble | solubility ([23]; dimethyl sulfoxide, dimethylformamide and dioxane): soluble | solubility ([23]; water and n-hexane): insoluble | MIC [24]: 0.4 ng/mL (≈ 0.744 nM) | IC50 ([25]; Mus musculus, P388/VCR, 72 h): 0.4 ng/mL (≈ 0.744 nM) | cytotoxicity against VCR-sensitive versus resistant P388 cells ([25]; P388 versus P388/VCR): same cytotoxicities against both VCR-sensitive and resistant P388 cells | MIC [26]: 13 ng/mL (≈ 24.2 nM) | MIC [27]: 50 ng/mL (≈ 93 nM) | MIC [28]: 0.013 ng/mL (≈ 0.0242 nM) | MIC [29]: 12500 ng/mL (≈ 23300 nM)
